Results on 12 molecules are retold here after BindingDB's records for patent US20250270173 (Gilgamesh Pharmaceuticals, 2025).

For this test, the target named is 5-hydroxytryptamine receptor 2A (Homo sapiens, UniProt P28223). The test is described as follows: 5-HT2A Receptor Binding Assay.
Chain of 5-hydroxytryptamine receptor 2A (P28223 whole entry): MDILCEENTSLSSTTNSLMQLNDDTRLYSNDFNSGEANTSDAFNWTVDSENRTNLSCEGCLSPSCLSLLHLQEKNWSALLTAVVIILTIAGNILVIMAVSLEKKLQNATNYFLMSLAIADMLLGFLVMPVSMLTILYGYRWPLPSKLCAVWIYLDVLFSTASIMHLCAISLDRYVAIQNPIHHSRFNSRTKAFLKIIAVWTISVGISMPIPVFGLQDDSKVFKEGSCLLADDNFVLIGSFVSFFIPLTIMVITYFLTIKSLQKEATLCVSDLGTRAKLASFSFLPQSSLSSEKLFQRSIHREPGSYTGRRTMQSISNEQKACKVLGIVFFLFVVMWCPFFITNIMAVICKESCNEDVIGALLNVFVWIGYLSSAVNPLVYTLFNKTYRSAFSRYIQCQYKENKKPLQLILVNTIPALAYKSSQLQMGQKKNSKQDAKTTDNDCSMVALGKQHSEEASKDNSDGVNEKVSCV
For `COc1cc(C)c(OC)nc1CC(C)N` (configuration not stated) [US20250270173, Compound 5], affinity was put at a Ki of 1170 nM. For `COc1cc(Br)c(OC)nc1CC(C)N` (configuration not stated) [US20250270173, Compound 6], the Ki turned out to be 168 nM.

Take `COc1cc(C)c(OC)nc1CCN` [US20250270173, Compound 8]: the affinity corresponds to a Ki of 1120 nM.

Turning to `COc1cc(Br)c(OC)nc1CCN` [US20250270173, Compound 9], the Ki came to 99.2 nM. Regarding `CCCCCc1nc(OC)c(CC(N)CC)cc1OC` (configuration not stated) [US20250270173, Compound 11], the Ki came to 273 nM.

The molecule `CCCCCc1nc(OC)c(CC(N)CC)nc1OC` (configuration not stated) [US20250270173, Compound 12] showed a Ki of 693 nM. `CCSc1cc(OC)c(CCN)nc1OC` [US20250270173, Compound 22] registered a Ki of 82.8 nM.

Molecule `CCSc1cc(OC)c(CC(C)N)nc1OC` (configuration not stated) [US20250270173, Compound 23] gave a Ki of 344 nM. Take `CCSc1cc(OC)c(CC(N)CC)nc1OC` (configuration not stated) [US20250270173, Compound 24]: the Ki is 649 nM. `COc1cc(C2CC2)c(OC)nc1CCN` [US20250270173, Compound 26] came in with a Ki of 150 nM. For `CCCCCCc1cc(OC)c(CCN)nc1OC` [US20250270173, Compound 29] the value was 0.91 nM.

Consider `CCCc1cc(OC)c(CC(N)CC)nc1OC` (configuration not stated) [US20250270173, Compound 37], for which the Ki was 106 nM.

Usually Ki stands for the dissociation constant of the complex between target and ligand, obtained from inhibition or displacement. Lower therefore signals higher affinity.
